In PubChem BioAssay AID2060513 (Molecular Pharmacology Branch, DTP, NCI, 2025):
One block for each compound: values may come before it.

Tested on: 299254-011-R-J1-PDC complex spheroids viability
Assay: Anticancer human tumor 299254-011-R-J1-PDC patient-derived melanoma cell line growth inhibition [GQUAD]
Conditions: for IC50: curve of first compound; for viability, T/C: stronger effect = lower value
Outline: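 Tumor cells were grown as complex spheroids with HUVEC endothelial cells and mesenchymal stem cells as stroma. G-quadruplex stabilizers were combined with targeted agents over half-log dilutions from near the clinical Cmax, or from 10 microM.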

[1] = second compound 0.0316 µM, first compound 0.0316 µM
[2] = second compound 0.0316 µM, first compound 0.316 µM
[3] = second compound 0.1 µM, first compound 0.0316 µM
[4] = second compound 0.1 µM, first compound 0.316 µM
[5] = second compound 0.316 µM, first compound 0.0316 µM
[6] = second compound 0.316 µM, first compound 0.316 µM
[7] = second compound 1 µM, first compound 0.0316 µM
[8] = second compound 1 µM, first compound 0.316 µM
[9] = second compound 3.16 µM, first compound 0.0316 µM
[10] = second compound 3.16 µM, first compound 0.316 µM
[11] = second compound 10 µM, first compound 0.0316 µM
[12] = second compound 10 µM, first compound 0.316 µM
[13] = second compound 0.0316 µM, first compound 0.1 µM
[14] = second compound 0.0316 µM, first compound 1 µM
[15] = second compound 0.0316 µM, first compound 3.16 µM
[16] = second compound 0.0316 µM, first compound 10 µM
[17] = second compound 0.1 µM, first compound 0.1 µM
[18] = second compound 0.1 µM, first compound 1 µM
[19] = second compound 0.1 µM, first compound 3.16 µM
[20] = second compound 0.1 µM, first compound 10 µM
[21] = second compound 0.316 µM, first compound 0.1 µM
[22] = second compound 0.316 µM, first compound 1 µM
[23] = second compound 0.316 µM, first compound 3.16 µM
[24] = second compound 0.316 µM, first compound 10 µM
[25] = second compound 1 µM, first compound 0.1 µM
[26] = second compound 1 µM, first compound 1 µM
[27] = second compound 1 µM, first compound 3.16 µM
[28] = second compound 1 µM, first compound 10 µM
[29] = second compound 3.16 µM, first compound 0.1 µM
[30] = second compound 3.16 µM, first compound 1 µM
[31] = second compound 3.16 µM, first compound 3.16 µM
[32] = second compound 3.16 µM, first compound 10 µM
[33] = second compound 10 µM, first compound 0.1 µM
[34] = second compound 10 µM, first compound 1 µM
[35] = second compound 10 µM, first compound 3.16 µM
[36] = second compound 10 µM, first compound 10 µM
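Note: spheroids exposed to the agents for seven days before readout.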
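Throughout, for viability, T/C: percent viability relative to DMSO vehicle control wells = 100%.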

Structure (SMILES): CCc1c2c(nc3ccc(O)cc13)-c1cc3c(c(=O)n1C2)COC(=O)[C@]3(O)CC + Cc1[nH]c2ccc(F)cc2c1-c1nc2c3cccnc3c3ncccc3c2[nH]1
IC50 (second compound 0.0316 µM): > 0.316 µM
IC50 (second compound 0.1 µM): > 0.316 µM
IC50 (second compound 0.316 µM): > 0.316 µM
IC50 (second compound 1 µM): > 0.316 µM
IC50 (second compound 3.16 µM): > 0.316 µM
IC50 (second compound 10 µM): > 0.316 µM
viability, T/C (second compound 0.0316 µM, first compound 0.000999 µM): 106%
viability, T/C (second compound 0.0316 µM, first compound 0.00316 µM): 88.8%
viability, T/C (second compound 0.0316 µM, first compound 0.00999 µM): 73.2%
viability, T/C [1]: 73.7%
viability, T/C (second compound 0.0316 µM, first compound 0.0999 µM): 79.6%
viability, T/C [2]: 66.1%
viability, T/C (second compound 0.1 µM, first compound 0.000999 µM): 108%
viability, T/C (second compound 0.1 µM, first compound 0.00316 µM): 117%
viability, T/C (second compound 0.1 µM, first compound 0.00999 µM): 85.4%
viability, T/C [3]: 90.2%
viability, T/C (second compound 0.1 µM, first compound 0.0999 µM): 79.6%
viability, T/C [4]: 64.8%
viability, T/C (second compound 0.316 µM, first compound 0.000999 µM): 91.1%
viability, T/C (second compound 0.316 µM, first compound 0.00316 µM): 117%
viability, T/C (second compound 0.316 µM, first compound 0.00999 µM): 69.2%
viability, T/C [5]: 84.2%
viability, T/C (second compound 0.316 µM, first compound 0.0999 µM): 88.2%
viability, T/C [6]: 70.2%
viability, T/C (second compound 1 µM, first compound 0.000999 µM): 105%
viability, T/C (second compound 1 µM, first compound 0.00316 µM): 92.7%
viability, T/C (second compound 1 µM, first compound 0.00999 µM): 94.2%
viability, T/C [7]: 77.5%
viability, T/C (second compound 1 µM, first compound 0.0999 µM): 84%
viability, T/C [8]: 68.6%
viability, T/C (second compound 3.16 µM, first compound 0.000999 µM): 102%
viability, T/C (second compound 3.16 µM, first compound 0.00316 µM): 114%
viability, T/C (second compound 3.16 µM, first compound 0.00999 µM): 75.7%
viability, T/C [9]: 80.7%
viability, T/C (second compound 3.16 µM, first compound 0.0999 µM): 79.9%
viability, T/C [10]: 72.2%
viability, T/C (second compound 10 µM, first compound 0.000999 µM): 96.1%
viability, T/C (second compound 10 µM, first compound 0.00316 µM): 94.4%
viability, T/C (second compound 10 µM, first compound 0.00999 µM): 80.7%
viability, T/C [11]: 76.8%
viability, T/C (second compound 10 µM, first compound 0.0999 µM): 60.1%
viability, T/C [12]: 58.8%

IC50 (second compound 0.0316 µM): > 10 µM
IC50 (second compound 0.1 µM): > 10 µM
IC50 (second compound 0.316 µM): > 10 µM
IC50 (second compound 1 µM): > 10 µM
IC50 (second compound 3.16 µM): > 10 µM
IC50 (second compound 10 µM): < 0.0316 µM
Structure (SMILES): O=C(c1cc(Cc2n[nH]c(=O)c3ccccc23)ccc1F)N1CCN(C(=O)C2CC2)CC1 + Cc1cnc(CNC(=O)c2c(=O)c3ccc(N4CCCN(C)CC4)nc3n3c2sc2ccccc23)cn1
viability, T/C [1]: 99.3%
viability, T/C [13]: 92.8%
viability, T/C [2]: 94.1%
viability, T/C [14]: 83.4%
viability, T/C [15]: 87.2%
viability, T/C [16]: 81.5%
viability, T/C [3]: 102%
viability, T/C [17]: 99.8%
viability, T/C [4]: 89.7%
viability, T/C [18]: 98.4%
viability, T/C [19]: 117%
viability, T/C [20]: 81.6%
viability, T/C [5]: 81.6%
viability, T/C [21]: 97.2%
viability, T/C [6]: 91.3%
viability, T/C [22]: 102%
viability, T/C [23]: 103%
viability, T/C [24]: 73.9%
viability, T/C [7]: 78%
viability, T/C [25]: 79.5%
viability, T/C [8]: 82.7%
viability, T/C [26]: 73.5%
viability, T/C [27]: 75.6%
viability, T/C [28]: 66%
viability, T/C [9]: 67.1%
viability, T/C [29]: 91.5%
viability, T/C [10]: 93.7%
viability, T/C [30]: 78.8%
viability, T/C [31]: 69.5%
viability, T/C [32]: 67.9%
viability, T/C [11]: 0.42%
viability, T/C [33]: 20.2%
viability, T/C [12]: 52.3%
viability, T/C [34]: 41.7%
viability, T/C [35]: 0.43%
viability, T/C [36]: 0.33%

IC50 (second compound 0.0316 µM): 4.26 µM
IC50 (second compound 0.1 µM): 4.92 µM
IC50 (second compound 0.316 µM): 3.64 µM
IC50 (second compound 1 µM): 3.99 µM
IC50 (second compound 3.16 µM): 2.38 µM
IC50 (second compound 10 µM): 0.0316 µM
Structure (SMILES): COc1cccc2c1C(=O)c1c(O)c3c(c(O)c1C2=O)CC(O)(C(=O)CO)CC3OC1CC(N)C(O)C(C)O1 (stereo unspecified) + Cc1cnc(CNC(=O)c2c(=O)c3ccc(N4CCCN(C)CC4)nc3n3c2sc2ccccc23)cn1
viability, T/C [1]: 104%
viability, T/C [13]: 106%
viability, T/C [2]: 87%
viability, T/C [14]: 88.3%
viability, T/C [15]: 61.3%
viability, T/C [16]: 16.9%
viability, T/C [3]: 110%
viability, T/C [17]: 104%
viability, T/C [4]: 95.2%
viability, T/C [18]: 88.2%
viability, T/C [19]: 70.5%
viability, T/C [20]: 20.9%
viability, T/C [5]: 83.3%
viability, T/C [21]: 95%
viability, T/C [6]: 75.9%
viability, T/C [22]: 78.9%
viability, T/C [23]: 54.9%
viability, T/C [24]: 11.1%
viability, T/C [7]: 81.2%
viability, T/C [25]: 76.3%
viability, T/C [8]: 86.7%
viability, T/C [26]: 76.4%
viability, T/C [27]: 63%
viability, T/C [28]: 0.21%
viability, T/C [9]: 84.8%
viability, T/C [29]: 87.7%
viability, T/C [10]: 66.2%
viability, T/C [30]: 78.2%
viability, T/C [31]: 41.1%
viability, T/C [32]: 0.21%
viability, T/C [11]: 38.2%
viability, T/C [33]: 19.6%
viability, T/C [12]: 53.9%
viability, T/C [34]: 63.3%
viability, T/C [35]: 0.39%
viability, T/C [36]: 0.28%
